Laboratory results published in ChEMBL document CHEMBL3526076, “Species-dependent and receptor-selective action of bilobalide on the function of constitutive androstane receptor and pregnane X receptor” (Drug Metab Dispos, 2012).

Assays:
Format in all cases: ADME, cell-based, Hepatocyte
[1] = molecular target: T1, Nuclear receptor subfamily 1 group I member 3 (Rattus norvegicus, UniProt Q9QUS1); test: Activation of CAR in rat hepatocytes assessed as increase in CYP2B-mediated benzyloxyresorufin O-dealkylation at 1 uM after 24 hrs by spectrofluorometric analysis relative to phenobarbital
T1 sequence (Q9QUS1 whole entry): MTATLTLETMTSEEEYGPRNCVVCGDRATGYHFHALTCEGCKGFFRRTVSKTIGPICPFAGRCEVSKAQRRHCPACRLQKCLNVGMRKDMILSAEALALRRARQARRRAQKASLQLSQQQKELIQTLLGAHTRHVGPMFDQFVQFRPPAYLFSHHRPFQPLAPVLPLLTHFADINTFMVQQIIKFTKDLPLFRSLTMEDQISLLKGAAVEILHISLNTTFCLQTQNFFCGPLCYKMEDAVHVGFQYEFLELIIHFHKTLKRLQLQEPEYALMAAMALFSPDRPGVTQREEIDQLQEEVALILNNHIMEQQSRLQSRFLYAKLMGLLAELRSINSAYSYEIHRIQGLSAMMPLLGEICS

[2] = molecular target: T2, Nuclear receptor subfamily 1 group I member 2 (Rattus norvegicus, UniProt Q9R1A7); test: Activation of rat PXR expressed in rat hepatocytes coexpressing CYP3A4 at 100 uM after 24 hrs by dual luciferase reporter gene assay
T2 sequence (Q9R1A7 whole entry): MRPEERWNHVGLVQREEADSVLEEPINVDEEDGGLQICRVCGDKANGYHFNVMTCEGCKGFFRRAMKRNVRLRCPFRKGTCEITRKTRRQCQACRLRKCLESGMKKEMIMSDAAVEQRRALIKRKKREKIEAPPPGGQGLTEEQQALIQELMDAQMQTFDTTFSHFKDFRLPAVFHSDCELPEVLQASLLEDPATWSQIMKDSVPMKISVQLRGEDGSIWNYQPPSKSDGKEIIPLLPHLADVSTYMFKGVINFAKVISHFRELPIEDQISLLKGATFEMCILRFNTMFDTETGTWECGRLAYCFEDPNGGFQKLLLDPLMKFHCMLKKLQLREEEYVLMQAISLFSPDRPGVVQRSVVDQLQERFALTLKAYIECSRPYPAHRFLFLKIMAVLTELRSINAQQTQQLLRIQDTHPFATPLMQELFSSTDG

[3] = molecular target: T1, Nuclear receptor subfamily 1 group I member 3; test: Activation of rat CAR expressed in rat hepatocytes coexpressing CYP2B1 at 100 uM after 24 hrs by dual luciferase reporter gene assay relative to control; conditions: hepatocytes, 24 h, 100 µM
[4] = molecular target: T3, Nuclear receptor subfamily 1 group I member 3 (Homo sapiens, UniProt Q14994); test: Activation of CAR in human Hu1043 hepatocytes assessed as increase in CYP2B6-mediated bupropion hydroxylation at 10 to 60 uM after 24 hrs by LC-MS analysis
T3 sequence (Q14994 whole entry): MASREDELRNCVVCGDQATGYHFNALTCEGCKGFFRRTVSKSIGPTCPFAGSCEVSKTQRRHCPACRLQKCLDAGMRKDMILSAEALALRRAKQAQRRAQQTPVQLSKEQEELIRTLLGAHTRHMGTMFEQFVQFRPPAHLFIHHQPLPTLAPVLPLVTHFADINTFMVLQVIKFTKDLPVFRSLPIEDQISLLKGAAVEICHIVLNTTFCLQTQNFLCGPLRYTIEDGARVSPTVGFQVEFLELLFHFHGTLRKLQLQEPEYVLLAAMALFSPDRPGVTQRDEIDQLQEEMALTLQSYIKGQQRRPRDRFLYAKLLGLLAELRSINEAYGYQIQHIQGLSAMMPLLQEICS

[5] = molecular target: T4, Nuclear receptor subfamily 1 group I member 2 (Homo sapiens, UniProt O75469); test: Activation of PXR in human Hu1108 hepatocytes assessed as effect on CYP3A4 mRNA expression at 10 to 50 uM after 24 hrs by RT-PCR analysis
T4 sequence (O75469 whole entry): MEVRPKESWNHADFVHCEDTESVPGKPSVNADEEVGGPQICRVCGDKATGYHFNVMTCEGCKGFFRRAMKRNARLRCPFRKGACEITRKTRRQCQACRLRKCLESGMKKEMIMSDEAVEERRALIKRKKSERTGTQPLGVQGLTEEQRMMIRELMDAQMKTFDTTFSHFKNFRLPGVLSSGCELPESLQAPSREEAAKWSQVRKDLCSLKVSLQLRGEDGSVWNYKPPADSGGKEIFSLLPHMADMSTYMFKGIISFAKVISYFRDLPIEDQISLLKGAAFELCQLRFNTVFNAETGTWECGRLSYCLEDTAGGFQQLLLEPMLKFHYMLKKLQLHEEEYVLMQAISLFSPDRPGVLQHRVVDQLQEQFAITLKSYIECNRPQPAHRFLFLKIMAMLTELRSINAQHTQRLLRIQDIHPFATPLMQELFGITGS

[6] = molecular target: T1, Nuclear receptor subfamily 1 group I member 3; test: Activation of rat CAR expressed in rat hepatocytes coexpressing CYP2B1 at 100 uM after 24 hrs by dual luciferase reporter gene assay relative to phenobarbital
PXR mRNA = test: Effect on PXR mRNA expression in human hepatocytes at 25 uM by RT-PCR analysis relative to control; conditions: read-out: FC
[7] = molecular target: T1, Nuclear receptor subfamily 1 group I member 3; test: Activation of rat CAR expressed in rat hepatocytes coexpressing CYP2B1 at 60 uM after 24 hrs by dual luciferase reporter gene assay relative to phenobarbital
CAR mRNA = test: Effect on CAR mRNA expression in rat hepatocytes at 3 uM by RT-PCR analysis relative to control; conditions: read-out: FC

For CC(C)(C)[C@]1(O)C[C@@H]2OC(=O)C[C@@]23C(=O)O[C@@H]2OC(=O)[C@H](O)[C@]213, the Activity [1] was 30%, the Activity [2] was “Not Active” and the Activity [3] was “Active”. The Activity [4] was “Not Active”, the Activity [5] was “Not Active” and the Activity [6] was 115%. It also gave a fold induction at 25 µM (PXR mRNA) of 1.2, an Activity [7] of 176% and a fold induction at 3 µM (CAR mRNA) of 1.3.
